Measurements as given in article PMC9776540, “Therapeutic Potential of a Water-Soluble Silver-Diclofenac Coordination Polymer on 3D Pancreatic Cancer Spheroids” (Journal of Medicinal Chemistry, 2022).

How the values were obtained:
A549 [1] = assay: MTT cytotoxicity assay (IC50); type: cell-based, human; conditions: Homo sapiens, A549, 72 h
Description: (§1) MCF7 cell line (human breast adenocarcinoma, morphology: epithelial-like, ATCC: HTB-22), A549 cell […]
(§2) keratinocyte, morphology: epidermal, CSL Cell Lines Service GmbH); were cultured in Dulbecco’s Modified Eagle’s Medium (DMEM, Corning) with phenol red, supplemented with 10% fetal bovine serum (FBS) and with 1% streptomycin/penicillin. […]
(§3) from metastatic site: brain, ATCC: HTB-81) and MCR-5 cell line (primary line of human pulmonary […]
(§4) 10% fetal bovine serum (FBS). Cultures were incubated at 37 °C under a humidified atmosphere containing 5% CO2. Cells were transferred using a solution containing 0.05% trypsin and 0.5 mM EDTA.
(§5) All media and other ingredients were purchased from ALAB, Poland.
(§6) Cytotoxicity was assessed by MTT assay performed according the protocols described elsewhere.S1 In brief, 1×10^4 cells per well, seeded in 96-well flat bottom microtiter plate, were incubated with the tested compounds (in the appropriate media) at various range of concentrations for 24 h. After that time, solutions of compounds were washed out, cells were washed three times with PBS and fresh medium was applied. After next 72 h cell viability was determined using the Hill equation (Origin 9.0) with regard to the untreated cells (control), where y0 – untreated cell control (which was set to 100% viability), y100 – a lysis control (where the cells were treated with 0.5% triton X-100 was set to 0% […]
(§7) [c] at which the viability of the cells reaches 50%, H – the Hill coefficient (describing cooperativity):
(§8) Each compound concentration was tested in five replicates and repeated at least three times.
(§9) Determined values of IC50 are given as mean + S.D. (Standard Deviation).
(§10) Cisplatin was tested as a reference anticancer drug. […]

DU-145 [2] = assay: MTT cytotoxicity assay (IC50); type: cell-based, human; conditions: Homo sapiens, DU-145, 72 h
Description: as §1, §2, §3, §4, §5, §6, §7, §8, §9, §10

HaCat [3] = assay: MTT cytotoxicity assay (IC50); type: cell-based, human; conditions: Homo sapiens, HaCaT, 72 h
Description: as §1, §2, §3, §4, §5, §6, §7, §8, §9, §10

MCF7 = assay: MTT cytotoxicity assay (IC50); type: cell-based, human; conditions: Homo sapiens, MCF7, 72 h
Description: as §1, §2, §3, §4, §5, §6, §7, §8, §9, §10

MRC5 = assay: MTT cytotoxicity assay (IC50); type: cell-based, human; conditions: Homo sapiens, MRC5, 72 h
Description: as §1, §2, §3, §4, §5, §6, §7, §8, §9, §10

PANC-1 [4] = assay: MTT cytotoxicity assay (IC50); type: cell-based, human; conditions: Homo sapiens, PANC-1, 72 h
Description: as §1, §2, §3, §4, §5, §6, §7, §8, §9, §10

A549 [5] = assay: MTT survival test, surviving fraction (Table S3); type: cell-based, human
Description: (§11) 24, and 72 h. After each incubation time, the cells were washed with PBS. Then, fresh medium (supplemented with 10% FSB) was added, and the cells were incubated under standard conditions for another 24 h (6h + 24h, 24h + 24h, 72h + 24h). After this time, the MTT survival test was done. Surviving fraction given in % was estimated with relation to untreated cells. In the case of 6h + 24h and 24h + 24h approaches, the cells were seeded at 10 000 cells per well, while in the case of 72h + 24h at […]

DU-145 [6] = assay: MTT survival test, surviving fraction (Table S3); type: cell-based, human
Description: as §11

HaCat [7] = assay: MTT survival test, surviving fraction (Table S3); type: cell-based, human
Description: as §11

MCF-7 = assay: MTT survival test, surviving fraction (Table S3); type: cell-based, human
Description: as §11

PANC-1 [8] = assay: MTT survival test, surviving fraction (Table S3); type: cell-based, human
Description: as §11

PANC-1 cells [9] = conditions: PANC-1, 1 at IC50, others at molar ratio 1:1:1, 72 h after treatment
Description: as §1, §2, §3, §4
All media and other ingredients were purchased from ALAB, Poland. […]
Acridine Orange (OA) and Propidium Iodide PI Staining
AO is a nucleic acid-binding fluorophore that is cell membrane permeable and suitable for selective staining of nucleated living cells. PI is a nucleic acid-binding dye that is impermeable to live cells and suitable for staining dead or dying nucleated cells. All live, nucleated cells fluoresce green due to AO, and dead, nucleated cells are stained with both AO and PI and fluoresce red. For analysis of 1-induced

PANC-1 cells [10] = assay: Mitochondrial membrane potential, JC-10 assay; type: cell-based, human; conditions: PANC-1, 4 h, 1 at IC50, others at molar ratio 1:1:1
Description: As an important indicator of mitochondrial dysfunction, the variation in mitochondrial membrane potential was monitored by the JC-10 probe (Figure 6C) aiming to understand the importance of mitochondrial disorder during the cancer cell death induced by 1.
Detection of Mitochondrial Membrane Potential (Δψ)
Mitochondrial membrane potential (MMP) depletion was determined by JC-10 Assay (Life
Technologies, USA). […] After 24h
ciprofloxacin (10 µg/mL) as positive and negative control, respectively. After that, cells were incubated
for 4 h at standard condition (37 °C, 5% CO2). Then, they were washed twice with PBS buffer and
incubated with JC-10 for 1 h. Afterwards, emission was measured at two different excitation
wavelengths ( exc = 540 nm,  em = 570 nm) and ( exc = 485 nm,  em = 530 nm). Results are presented as
the intensity ratio of red to green emission (mean + S.D.).

pBR322 plasmid = assay: DNA strand break analysis, agarose gel electrophoresis; type: biochemical; conditions: pBR322, 24 h, even at high concentration (500 μM)
Description: Then, the interaction between DNA and diclofenac, PTA, or 1 was evaluated by the gel electrophoresis of pBR322 plasmid to determine an ability to cause double- and/or single-strand DNA damages (Figure 6D). The double-strand damage may result in the appearance of different forms of DNA (linear form III and relaxed form II), which can be quantified by densitometry analysis (Figure 6E).
DNA Strand Break Analysis
The ability of 1, PTA and diclofenac to induce single- or double-strand breaks in plasmid DNA was tested
with the pBR322 plasmid (c = 0.5 mg/mL). All compounds were dissolved in water (c = 1 µM-500 µM).
After 1 h incubation at 37 °C, the reaction mixtures (20 μL) were mixed with 3 μL of loading buffer
(bromophenol blue in 30% glycerol) and loaded on 1% agarose gels, containing EB, in TBE buffer (90
mM Tris–borate, 20 mM EDTA, pH = 8.0). Gel electrophoresis was performed at a constant voltage of
100 V (4 V/cm) for 60 min. The gel was photographed and processed with a Digital Imaging System
(Syngen Biotech). For the densitometric analysis the UltraQuant 6.0 program was used.

C1N2CN3CN1CP(C2)C3 [PTA, 1,3,5-triaza-7-phosphaadamantane]
IC50 (A549 [1]): 1170 ± 14.7 µM | IC50 (DU-145 [2]): 1230 ± 21.9 µM | IC50 (HaCat [3]): 826 ± 8.76 µM | IC50 (MCF7): 1471 ± 14.4 µM | IC50 (MRC5): 867 ± 18.3 µM | IC50 (PANC-1 [4]): 1290 ± 52.6 µM | surviving fraction (A549 [5]; A549, 6h + 24h, dil. 10 000x (stocks: diclofenac 0.918, PTA 0.483, AgNO3 0.326 mg/mL)): 96.8 ± 10.8% | surviving fraction (A549 [5]; A549, 6h + 24h, dil. 100x (stocks: diclofenac 0.918, PTA 0.483, AgNO3 0.326 mg/mL)): 77.5 ± 9.8% | surviving fraction (A549 [5]; A549, 6h + 24h, dil. 1000x (stocks: diclofenac 0.918, PTA 0.483, AgNO3 0.326 mg/mL)): 82.4 ± 12.9% | surviving fraction (A549 [5]; A549, 24h + 24h, dil. 10 000x (stocks: diclofenac 0.918, PTA 0.483, AgNO3 0.326 mg/mL)): 98.6 ± 5.9% | surviving fraction (A549 [5]; A549, 24h + 24h, dil. 100x (stocks: diclofenac 0.918, PTA 0.483, AgNO3 0.326 mg/mL)): 77.2 ± 12.8% | surviving fraction (A549 [5]; A549, 24h + 24h, dil. 1000x (stocks: diclofenac 0.918, PTA 0.483, AgNO3 0.326 mg/mL)): 88.2 ± 8.7% | surviving fraction (A549 [5]; A549, 72h + 24h, dil. 10 000x (stocks: diclofenac 0.918, PTA 0.483, AgNO3 0.326 mg/mL)): 92.7 ± 8.6% | surviving fraction (A549 [5]; A549, 72h + 24h, dil. 100x (stocks: diclofenac 0.918, PTA 0.483, AgNO3 0.326 mg/mL)): 67.3 ± 8.6% | surviving fraction (A549 [5]; A549, 72h + 24h, dil. 1000x (stocks: diclofenac 0.918, PTA 0.483, AgNO3 0.326 mg/mL)): 79.8 ± 7.5% | surviving fraction (DU-145 [6]; Du-145, 6h + 24h, dil. 10 000x (stocks: diclofenac 0.918, PTA 0.483, AgNO3 0.326 mg/mL)): 106.9 ± 9.2% | surviving fraction (DU-145 [6]; Du-145, 6h + 24h, dil. 100x (stocks: diclofenac 0.918, PTA 0.483, AgNO3 0.326 mg/mL)): 78.4 ± 11.8% | surviving fraction (DU-145 [6]; Du-145, 6h + 24h, dil. 1000x (stocks: diclofenac 0.918, PTA 0.483, AgNO3 0.326 mg/mL)): 89.3 ± 8.8% | surviving fraction (DU-145 [6]; Du-145, 24h + 24h, dil. 10 000x (stocks: diclofenac 0.918, PTA 0.483, AgNO3 0.326 mg/mL)): 99.2 ± 7.2% | surviving fraction (DU-145 [6]; Du-145, 24h + 24h, dil. 100x (stocks: diclofenac 0.918, PTA 0.483, AgNO3 0.326 mg/mL)): 73.8 ± 12.6% | surviving fraction (DU-145 [6]; Du-145, 24h + 24h, dil. 1000x (stocks: diclofenac 0.918, PTA 0.483, AgNO3 0.326 mg/mL)): 89.2 ± 5.8% | surviving fraction (DU-145 [6]; Du-145, 72h + 24h, dil. 10 000x (stocks: diclofenac 0.918, PTA 0.483, AgNO3 0.326 mg/mL)): 101.2 ± 12.4% | surviving fraction (DU-145 [6]; Du-145, 72h + 24h, dil. 100x (stocks: diclofenac 0.918, PTA 0.483, AgNO3 0.326 mg/mL)): 62.3 ± 8.7% | surviving fraction (DU-145 [6]; Du-145, 72h + 24h, dil. 1000x (stocks: diclofenac 0.918, PTA 0.483, AgNO3 0.326 mg/mL)): 84.2 ± 8.2% | surviving fraction (HaCat [7]; 6h + 24h, dil. 10 000x (stocks: diclofenac 0.918, PTA 0.483, AgNO3 0.326 mg/mL)): 109.7 ± 6.3% | surviving fraction (HaCat [7]; 6h + 24h, dil. 100x (stocks: diclofenac 0.918, PTA 0.483, AgNO3 0.326 mg/mL)): 99.7 ± 4.9% | surviving fraction (HaCat [7]; 24h + 24h, dil. 10 000x (stocks: diclofenac 0.918, PTA 0.483, AgNO3 0.326 mg/mL)): 98.1 ± 12.1% | surviving fraction (HaCat [7]; 24h + 24h, dil. 100x (stocks: diclofenac 0.918, PTA 0.483, AgNO3 0.326 mg/mL)): 92.2 ± 5.3% | surviving fraction (HaCat [7]; 24h + 24h, dil. 1000x (stocks: diclofenac 0.918, PTA 0.483, AgNO3 0.326 mg/mL)): 96.7 ± 9.7% | surviving fraction (HaCat [7]; 72h + 24h, dil. 10 000x (stocks: diclofenac 0.918, PTA 0.483, AgNO3 0.326 mg/mL)): 100.6 ± 8.1% | surviving fraction (HaCat [7]; 72h + 24h, dil. 100x (stocks: diclofenac 0.918, PTA 0.483, AgNO3 0.326 mg/mL)): 91.2 ± 6.5% | surviving fraction (HaCat [7]; 72h + 24h, dil. 1000x (stocks: diclofenac 0.918, PTA 0.483, AgNO3 0.326 mg/mL)): 98.2 ± 8.4% | surviving fraction (MCF-7; MCF-7, 6h + 24h, dil. 10 000x (stocks: diclofenac 0.918, PTA 0.483, AgNO3 0.326 mg/mL)): 88.6 ± 7.5% | surviving fraction (MCF-7; MCF-7, 6h + 24h, dil. 100x (stocks: diclofenac 0.918, PTA 0.483, AgNO3 0.326 mg/mL)): 78.6 ± 13.1% | surviving fraction (MCF-7; MCF-7, 6h + 24h, dil. 1000x (stocks: diclofenac 0.918, PTA 0.483, AgNO3 0.326 mg/mL)): 89.6 ± 4.8% | surviving fraction (MCF-7; MCF-7, 24h + 24h, dil. 10 000x (stocks: diclofenac 0.918, PTA 0.483, AgNO3 0.326 mg/mL)): 100.2 ± 6.6% | surviving fraction (MCF-7; MCF-7, 24h + 24h, dil. 100x (stocks: diclofenac 0.918, PTA 0.483, AgNO3 0.326 mg/mL)): 70.9 ± 8.8% | surviving fraction (MCF-7; MCF-7, 24h + 24h, dil. 1000x (stocks: diclofenac 0.918, PTA 0.483, AgNO3 0.326 mg/mL)): 82.7 ± 11.5% | surviving fraction (MCF-7; MCF-7, 72h + 24h, dil. 10 000x (stocks: diclofenac 0.918, PTA 0.483, AgNO3 0.326 mg/mL)): 102.5 ± 6.0% | surviving fraction (MCF-7; MCF-7, 72h + 24h, dil. 100x (stocks: diclofenac 0.918, PTA 0.483, AgNO3 0.326 mg/mL)): 84.7 ± 8.9% | surviving fraction (MCF-7; MCF-7, 72h + 24h, dil. 1000x (stocks: diclofenac 0.918, PTA 0.483, AgNO3 0.326 mg/mL)): 88.6 ± 7.9% | surviving fraction (PANC-1 [8]; PANC-1, 6h + 24h, dil. 10 000x (stocks: diclofenac 0.918, PTA 0.483, AgNO3 0.326 mg/mL)): 89.7 ± 12.5% | surviving fraction (PANC-1 [8]; PANC-1, 6h + 24h, dil. 100x (stocks: diclofenac 0.918, PTA 0.483, AgNO3 0.326 mg/mL)): 74.7 ± 9.8% | surviving fraction (PANC-1 [8]; PANC-1, 6h + 24h, dil. 1000x (stocks: diclofenac 0.918, PTA 0.483, AgNO3 0.326 mg/mL)): 86.5 ± 6.4% | surviving fraction (PANC-1 [8]; PANC-1, 24h + 24h, dil. 10 000x (stocks: diclofenac 0.918, PTA 0.483, AgNO3 0.326 mg/mL)): 107.5 ± 6.8% | surviving fraction (PANC-1 [8]; PANC-1, 24h + 24h, dil. 100x (stocks: diclofenac 0.918, PTA 0.483, AgNO3 0.326 mg/mL)): 78.7 ± 8.3% | surviving fraction (PANC-1 [8]; PANC-1, 24h + 24h, dil. 1000x (stocks: diclofenac 0.918, PTA 0.483, AgNO3 0.326 mg/mL)): 85.2 ± 9.5% | surviving fraction (PANC-1 [8]; PANC-1, 72h + 24h, dil. 10 000x (stocks: diclofenac 0.918, PTA 0.483, AgNO3 0.326 mg/mL)): 98.9 ± 8.9% | surviving fraction (PANC-1 [8]; PANC-1, 72h + 24h, dil. 100x (stocks: diclofenac 0.918, PTA 0.483, AgNO3 0.326 mg/mL)): 70.8 ± 6.7% | surviving fraction (PANC-1 [8]; PANC-1, 72h + 24h, dil. 1000x (stocks: diclofenac 0.918, PTA 0.483, AgNO3 0.326 mg/mL)): 83.4 ± 5.1% | cytotoxicity seen by AO/PI staining (PANC-1 cells [9]): did not induce visible cytotoxicity | change of mitochondrial membrane potential (570/530 nm ratio of JC-10 fluorescence intensity) (PANC-1 cells [10]): significant decrease | degradation of plasmid DNA (pBR322 plasmid): no degradation of DNA
